Experimental data published in ChEMBL document CHEMBL3400135, “Design, synthesis and biological evaluation of novel homocamptothecin analogues as potent antitumor agents” (Bioorg Med Chem, 2015).
Calls of active or inactive are those of the source. No cut-off for these calls is given here.

What was measured:
[1] = biological target: T1, DNA topoisomerase 1 (Homo sapiens) (UniProt P11387); experiment: Inhibition of topoisomerase 1 (unknown origin) at 10 uM using supercoiled pBR322 DNA substrate by ethidium bromide staining based electrophoresis method
T1 sequence (whole entry): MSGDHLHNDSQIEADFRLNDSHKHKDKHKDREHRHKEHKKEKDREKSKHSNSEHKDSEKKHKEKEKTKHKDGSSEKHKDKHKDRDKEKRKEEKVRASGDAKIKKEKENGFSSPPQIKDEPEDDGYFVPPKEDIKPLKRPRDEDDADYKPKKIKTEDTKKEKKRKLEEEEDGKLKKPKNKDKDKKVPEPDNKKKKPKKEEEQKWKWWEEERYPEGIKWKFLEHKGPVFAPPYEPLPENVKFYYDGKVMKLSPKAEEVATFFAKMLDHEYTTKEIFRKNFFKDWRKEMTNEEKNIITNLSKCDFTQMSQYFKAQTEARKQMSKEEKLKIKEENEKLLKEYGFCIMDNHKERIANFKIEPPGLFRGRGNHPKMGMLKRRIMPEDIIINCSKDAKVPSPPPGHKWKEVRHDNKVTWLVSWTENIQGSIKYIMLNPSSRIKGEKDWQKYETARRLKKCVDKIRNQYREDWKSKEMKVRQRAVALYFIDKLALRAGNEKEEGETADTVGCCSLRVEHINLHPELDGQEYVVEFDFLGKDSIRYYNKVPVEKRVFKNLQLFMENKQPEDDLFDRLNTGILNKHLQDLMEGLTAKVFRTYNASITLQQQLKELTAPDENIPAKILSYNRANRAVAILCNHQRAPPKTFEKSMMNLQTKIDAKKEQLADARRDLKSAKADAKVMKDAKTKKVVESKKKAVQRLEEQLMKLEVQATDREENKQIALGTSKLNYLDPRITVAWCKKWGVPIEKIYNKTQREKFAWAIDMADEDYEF

[2] = Cytotoxicity against human HCT116 cells after 72 hrs by sulforhodamine B assay; format: functional, cell-based, HCT-116
[3] = biological target: T1, DNA topoisomerase 1 (Homo sapiens); experiment: Inhibition of topoisomerase 1 (unknown origin) at 100 uM using supercoiled pBR322 DNA substrate by ethidium bromide staining based electrophoresis method
HT-29 [4] = experiment: Cytotoxicity against human HT-29 cells after 72 hrs by sulforhodamine B assay; format: functional, cell-based
[5] = Stability in human plasma assessed as lactone moieties level at 1 uM incubated at 37 degC after 3 hrs by HPLC method; format: ADME, cell-free; conditions: read-out: Stability
[6] = Inhibition of survivin protein expression in human HCT116 cells at 5 nM after 48 hrs by Western blot method; format: functional, cell-based; conditions: HCT-116
[7] = Inhibition of survivin protein expression in human HCT116 cells at 1 nM after 48 hrs by Western blot method; format: functional, cell-based; conditions: HCT-116
HT-29 [8] = experiment: Antitumor activity against human HT-29 cells xenografted in mouse assessed as relative tumor increment rate at 15 mg/kg, iv dosed three times per week to the end of treatment relative to untreated control; format: functional
Mus musculus [9] = experiment: Toxicity in human HT-29 cells xenografted mouse assessed as body weight level at 15 mg/kg, iv dosed three times per week to the end of treatment measured on day 17 (reference value: 22 +/- 1.7 g); format: organism-based; parameters: dose 15 mg/kg, route intravenous; conditions: in vivo
Mus musculus [10] = experiment: Toxicity in human HT-29 cells xenografted mouse assessed as lethal toxicity at 15 mg/kg, iv dosed three times per week to the end of treatment; format: organism-based; parameters: dose 15 mg/kg, route intravenous; conditions: in vivo
Mus musculus [11] = experiment: Toxicity in human HT-29 cells xenografted mouse assessed as body weight level at 15 mg/kg, iv dosed three times per week to the end of treatment measured on day 14 (reference value: 22.7 +/- 1.5 g); format: organism-based; parameters: dose 15 mg/kg, route intravenous; conditions: in vivo
Mus musculus [12] = experiment: Toxicity in human HT-29 cells xenografted mouse assessed as body weight level at 15 mg/kg, iv dosed three times per week to the end of treatment measured on day 10 (reference value: 22.4 +/- 1.3 g); format: organism-based; parameters: dose 15 mg/kg, route intravenous; conditions: in vivo
Mus musculus [13] = experiment: Toxicity in human HT-29 cells xenografted mouse assessed as body weight level at 15 mg/kg, iv dosed three times per week to the end of treatment measured on day 7 (reference value: 21.7 +/- 1 g); format: organism-based; parameters: dose 15 mg/kg, route intravenous; conditions: in vivo
Mus musculus [14] = experiment: Toxicity in human HT-29 cells xenografted mouse assessed as body weight level at 15 mg/kg, iv dosed three times per week to the end of treatment measured on day 3 (reference value: 20.7 +/- 1.2 g); format: organism-based; parameters: dose 15 mg/kg, route intravenous; conditions: in vivo
Mus musculus [15] = experiment: Toxicity in human HT-29 cells xenografted mouse assessed as body weight level at 15 mg/kg, iv dosed three times per week to the end of treatment measured on day 21 (reference value: 21.2 +/- 1.6 g); format: organism-based; parameters: dose 15 mg/kg, route intravenous; conditions: in vivo
HCT-116 = experiment: Potency index, ratio of IC50 for SN38 to IC50 for compound against human HCT116 cells after 72 hrs by sulforhodamine B assay; format: functional

inhibition [1]	inhibition [3]	Compound	IC50 ([2]; Homo sapiens, HCT-116, 72 h)	IC50 (HT-29 [4]; Homo sapiens, HT-29, 72 h)	also measured
Active	Active	CC[C@]1(O)c2cc3n(c(=O)c2COC(=O)[C@H]1OC)Cc1c-3nc2ccc(OC)cc2c1C1CCN(C)CC1	8.23 nM	27.1 nM	
Active	Active	CC[C@]1(O)c2cc3n(c(=O)c2COC(=O)[C@H]1OC)Cc1cc2ccccc2nc1-3	1.72 nM	4.79 nM	
Active	Active	CC[C@]1(O)c2cc3n(c(=O)c2COC(=O)[C@H]1OC)Cc1c-3nc2ccccc2c1-c1cn(C)cn1	1.26 nM	4.11 nM	
Active	Active	CC[C@]1(O)c2cc3n(c(=O)c2COC(=O)[C@H]1OC)Cc1c-3nc2ccccc2c1-c1ccncc1	2.12 nM	7.18 nM	
Active	Active	CC[C@]1(O)c2cc3n(c(=O)c2COC(=O)[C@H]1OC(C)=O)Cc1c-3nc2ccccc2c1C1CCN(C)CC1	9.74 nM	63.8 nM	

Further lines, the compound ahead of its results:

Compound	inhibition [1]	inhibition [3]	IC50 ([2]; Homo sapiens, HCT-116, 72 h)	IC50 (HT-29 [4]; Homo sapiens, HT-29, 72 h)	also measured
CC[C@]1(O)c2cc3n(c(=O)c2COC(=O)[C@H]1OC(C)=O)Cc1c-3nc2ccc(OC)cc2c1-c1ccncc1	Active	Active	7.99 nM	31 nM	
CC[C@]1(O)c2cc3n(c(=O)c2COC(=O)[C@H]1OC)Cc1cc2cc(O)ccc2nc1-3	Active	Active	4.46 nM	26.7 nM	
CC[C@]1(O)c2cc3n(c(=O)c2COC(=O)[C@H]1OC(C)=O)Cc1c-3nc2ccc(OC)cc2c1C1CCN(C)CC1	Active	Active	13.2 nM	54.7 nM	
CCc1c2c(nc3ccc(O)cc13)-c1cc3c(c(=O)n1C2)COC(=O)[C@]3(O)CC [7-ETHYL-10-HYDROXYCAMPTOTHECIN]			4.28 nM	18.5 nM	remaining at 3 h, 1 µM [5]: 20%
CC[C@]1(O)c2cc3n(c(=O)c2COC(=O)[C@H]1OC)Cc1cc2cc4c(cc2nc1-3)OCO4	Active	Active	0.2 nM	0.3 nM	inhibition [6]: Active; inhibition [7]: Active
CCc1c2c(nc3ccc(OC(=O)N4CCC(N5CCCCC5)CC4)cc13)-c1cc3c(c(=O)n1C2)COC(=O)[C@]3(O)CC [IRINOTECAN]					T/C (HT-29 [8]): 42.22%; Activity (Mus musculus [9]): 22.3 g; Activity (Mus musculus [10]): Non-toxic; Activity (Mus musculus [11]): 22.4 g; Activity (Mus musculus [12]): 21.6 g; Activity (Mus musculus [13]): 20.8 g; Activity (Mus musculus [14]): 19.9 g; Activity (Mus musculus [15]): 21.3 g
CC[C@]1(O)c2cc3n(c(=O)c2COC(=O)[C@H]1OC)Cc1c-3nc2ccc(OC)cc2c1-c1ccncc1	Active	Active	3.33 nM	6.76 nM	
CC[C@]1(O)c2cc3n(c(=O)c2COC(=O)[C@H]1OC)Cc1c-3nc2ccccc2c1C1CCN(C)CC1	Active	Active	3.23 nM	17.2 nM	
CC[C@]1(O)c2cc3n(c(=O)c2COC(=O)[C@H]1OC)Cc1c-3nc2cc3c(cc2c1-c1ccncc1)OCO3 [listing 1 of 2 here]					IC50 ([2]; hct-116): 0.215 nM; Ratio IC50 (HCT-116): 20; IC50 (HT-29 [4]; ht-29): 1.27 nM
CC[C@]1(O)c2cc3n(c(=O)c2COC(=O)[C@H]1OC(C)=O)Cc1c-3nc2ccccc2c1-c1ccncc1		inactive	2.95 nM	11.4 nM	
CC[C@]1(O)c2cc3n(c(=O)c2COC(=O)[C@H]1OC(C)=O)Cc1c-3nc2ccccc2c1-c1cn(C)cn1	Active	Active	1.47 nM	9.11 nM	
CC[C@]1(O)c2cc3n(c(=O)c2COC(=O)[C@H]1OC)Cc1c-3nc2cc3c(cc2c1-c1ccncc1)OCO3 [listing 2 of 2 here]		Active			inhibition [6]: Active; inhibition [7]: Active
